Test results: paper PMC4528135, “Kinetic Investigations of the Role of Factor Inhibiting Hypoxia-inducible Factor (FIH) as an Oxygen Sensor” (The Journal of Biological Chemistry, 2015)
Where “and” joins values, the source holds several entries; their conditions need not be identical. Identical values can stand only once.

Columns and labels:
Format in all cases: biochemical
FIH [1] = target: T1, FIH (Homo sapiens, UniProt Q9NWT6); test: O2 dependence of FIH-catalyzed hydroxylation (hypoxia workstation); settings: for Km: FIH with the named substrate, 5 μM FIH, 500 μM peptide, 50 μM Fe(II), 1 mM 2OG, 1 mM L-ascorbate, 50 mM HEPES pH 7.5, 37 °C, hypoxia workstation at different pO2, triplicate assays, read-out: Km^app(O2)
T1 construct: Full-length recombinant FIH, two- and three-consensus ankyrin repeats (2CA and 3CA) were produced as described; His6 (cleaved yes); made in house; host or cells: Escherichia coli BL21(DE3)
T1 sequence (Q9NWT6 whole entry): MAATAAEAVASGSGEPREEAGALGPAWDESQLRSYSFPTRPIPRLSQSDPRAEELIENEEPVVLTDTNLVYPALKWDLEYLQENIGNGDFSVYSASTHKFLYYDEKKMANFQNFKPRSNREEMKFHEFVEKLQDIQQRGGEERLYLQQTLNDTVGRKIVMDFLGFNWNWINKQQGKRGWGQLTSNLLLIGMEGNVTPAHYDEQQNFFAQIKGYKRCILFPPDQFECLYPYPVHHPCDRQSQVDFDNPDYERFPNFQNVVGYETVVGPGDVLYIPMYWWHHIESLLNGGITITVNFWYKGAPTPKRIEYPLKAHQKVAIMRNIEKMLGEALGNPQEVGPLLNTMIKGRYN
Procedure: (§1) The O2 dependence of FIH-catalyzed reactions was determined by conducting enzymatic assays in an “In vivo 500 Hypoxia Workstation” (Ruskinn) using buffers pre-equilibrated under different pO2 values for 24 h. The O2 dependence of PHD2-catalyzed reactions was determined by conducting enzymatic assays in sealed glass vials with variable N2/O2 contents ([42]). Reactions were stopped by spotting samples onto a matrix-assisted laser desorption/ionization-time of flight mass spectrometry (MALDI-TOF-MS) target plate and immediately mixing with α-cyano-4-hydroxycinnamic acid matrix. Hydroxylation levels were assessed by MALDI-TOF-MS as described ([46]).
FIGURE 4. O2 dependence of FIH- and PHD2-catalyzed hydroxylation of HIF-1/2α. A, O2 dependence of PHD2-catalyzed hydroxylation of HIF-1/2α CODD/NODD 19-mer peptides. 4 μM PHD2, peptide (varied), 50 μM Fe(II), 2OG (varied), 4 mM L-ascorbate in HEPES 50 mM (pH 7.5) were incubated at 37 °C. The different O2 levels were maintained using mass flow controllers ([42]), and the hydroxylation levels were analyzed by MALDI-TOF-MS. B, O2 dependence of FIH-catalyzed hydroxylation of CAD HIF-1/2α 35-mer peptides. Conditions were as follows. 5 μM FIH, 500 μM peptide, 50 μM Fe(II), 1 mM 2OG, 1 mM L-ascorbate in HEPES 50 mM (pH 7.5) were incubated at 37 °C in a hypoxia work station under different pO2. […] Error bars, S.D. of triplicate assays.
FIGURE 8. Time course and O2 dependence of the FIH-catalyzed hydroxylation of HIF-α CAD and ARD substrates. Conditions were as follows. 5 μM FIH, 500 μM peptide, 50 μM Fe(II), 1 mM 2OG, 1 mM L-ascorbate in HEPES 50 mM (pH 7.5) were incubated at 37 °C. For O2 dependence studies, reactions were carried out in a hypoxic work station under different pO2 (assays at >20% O2 conducted using mass flow controllers ([42])). The different hydroxylation levels were analyzed by MALDI-TOF-MS or by LC-MS (for 2CA and 3CA). […] Error bars, S.D. of triplicate assays. A, time course of consensus ARD substrate hydroxylation (tankyrase-1 (tnkrs-1 20-mer and 35-mer) and one-consensus ankyrin repeat 20-mer (1CA)). B, time course of ARD peptide hydroxylation (one-consensus ankyrin repeat 20-mer (1CA), two ankyrin repeats (2CA), and three ankyrin repeats (3CA)). C, O2 dependence of HIF-1/2α CAD, 1CA, and tnkrs-1_35-mer hydroxylation. D, O2 dependence of 1CA, 2CA, and 3CA hydroxylation.

FIH [2] = target: T1, FIH; test: Stopped-flow UV-visible spectroscopy, FIH·Fe(II)·2OG·substrate + O2; settings: anaerobic 0.5 mM FIH, 1 mM substrate, 5 mM 2OG, 0.4 mM Fe(II), 50 mM HEPES pH 7.5, mixed 1:1 with O2-saturated buffer at 5 °C; double exponential fit
Procedure: Stopped-flow UV-visible spectroscopy experiments were performed as described previously ([32], [42]). Anerobically prepared assay mixtures containing 0.5 mM apo-FIH, 1 mM substrate, 5 mM 2OG, 0.4 mM Fe(II) or 0.8 mM apo-PHD2, 1 mM substrate, 5 mM 2OG, 0.5 mM Fe(II) were rapidly mixed with O2-free/O2-saturated buffer. The reaction was observed over 1000 s using a photodiode array detector, and kinetic traces were analyzed using Origin version 8.51 software. Data were fitted with a double exponential function (y = A1 × exp(−kriset) + A2 × exp(−kfallt) + y0). The A1, A2, and y0 parameters were restricted with upper limits to match the observed amplitude/offset changes.
Kinetic traces were fitted using a double exponential function; the fitting parameters of intermediate formation and decay are summarized in Table 3.
FIGURE 10. Stopped-flow UV-visible absorbance changes upon FIH-catalyzed hydroxylation of HIF-1/2α CAD and ARD substrates. Reaction mixtures containing anaerobic 0.5 mM apo-FIH, 0.4 mM Fe(II), 5 mM 2OG, and 1 mM peptide in HEPES 50 mM (pH 7.5) were rapidly mixed with O2-saturated buffer at 5 °C in 1:1 ratio and analyzed using a photodiode array detector. The data were fitted with a double exponential function. A, decay at 500 nm (representing enzyme·substrate complex depletion) observed upon FIH-catalyzed hydroxylation of ARD substrates compared with HIF-1/2α CAD. B, formation and degradation of 310 nm species observed upon FIH-catalyzed HIF-1/2α CAD and ARD hydroxylation. C, decay at 500 nm observed upon FIH-catalyzed hydroxylation of 1CA, 2CA, and 3CA substrates.

FIH [3] = target: T1, FIH; test: Steady-state kinetics of FIH-catalyzed peptide/protein hydroxylation (MALDI-TOF-MS or LC-MS); settings: for Km / kcat^app: 50 μM Fe(II), 1 mM L-ascorbate; for 2OG concentration above which substrate inhibition was observed: FIH steady-state assays with the named CAD peptide; for kcat^app: MALDI-TOF-MS or LC-MS
Procedure: Enzymatic assays were conducted as described ([46], [47]). Unless otherwise stated, the assay mixture typically contained 5 μM FIH, 500 μM substrate, 500 μM 2OG, 1 mM L-ascorbate, and 50 μM Fe(NH4)2(SO4)2 or 4 μM PHD2, 100 μM substrate, 300 μM 2OG, 4 mM L-ascorbate, and 50 μM Fe(NH4)2(SO4)2. For HIF-1α CODD19-mer, the background levels of methionine oxidation resulting from assay conditions were subtracted based on non-enzymatic controls ([48]).
as §1
Samples obtained from FIH kinetic assays with 2CA and 3CA were diluted to a substrate concentration of 5 μM and then analyzed using a Waters® LCT Classic mass spectrometer by electrospray ionization in positive ion mode. An Agilent HP1100 LC system was used, and samples were run through a Phenomenex® Aeris Widepore 3.6-μm XB-C8 150 × 2.1-mm column at 0.5 ml/min in a gradient of phase A (95% H2O, 5% CH3CN, 0.01% formic acid) to phase B (95% CH3CN, 5% H2O, 0.01% formic acid). The LC/MS used the following method: 0–1.5 min, 100% A and then 1.5–12 min linear gradient from 0 to 100% B, 12–14 min 100% B, and 15.0–19.0 min 100% A for re-equilibration of the column. Data were collected and analyzed using MassLynx version 4.0.

[4] = FIH with the named substrate, 0.1–5 μM FIH, 2OG varied, 50 mM HEPES pH 7.5, 37 °C, MALDI-TOF-MS (LC-MS for 2CA, 3CA), triplicate assays, read-out: Km^app(2OG)
[5] = FIH, 0.1–5 μM FIH, substrate varied, 2OG fixed, 50 mM HEPES pH 7.5, 37 °C, MALDI-TOF-MS (LC-MS for 2CA, 3CA), triplicate assays, read-out: Km^app(peptide)

| Sequence | Km (FIH [1]) | Half-saturation of O2 (FIH [1]; FIH-catalyzed hydroxylation, hypoxia workstation, 37 °C) | Stopped-flow, 500 nm (FIH) kfall phase (FIH [2]) | Stopped-flow, 500 nm (FIH) krise phase (FIH [2]) | Km (FIH [3]; 5 μM FIH, peptide 500-1000 µM fixed, 2OG varied, Figure S3B, read-out: Km^app(2OG), fitting with a substrate inhibition model) | 2OG concentration above which substrate inhibition was observed (FIH [3]) | Km (FIH [3]; [4]) | kcat^app (FIH [3]; FIH, 50 mM HEPES pH 7.5, 37 °C) | Km (FIH [3]; [5]) | Km^app(O2) fold higher than in the presence of 1CA and 2CA (FIH [1]; FIH) |
| --- | --- | --- | --- | --- | --- | --- | --- | --- | --- | --- |
| DESGLPQLTSYDCEVNAPIQGSRNLLQGEELLRAL [HIF-1α CAD35-mer] | 110 ± 30 µM | 9–11 % O2 | 4.5 ± 0.3 s⁻¹ | 0.009 ± 0.005 s⁻¹ | 300 ± 100 µM | > 100 µM | 110 ± 20 µM | 0.56 ± 0.04 s⁻¹ | 180 ± 30 µM | – |
| SDKNGSTPLHLAARNGHLEVVKLLLEHGADVNAQDKWGKTAFDISIDNGNEDLAEILQ [2CA, recombinant two-consensus ankyrin repeat protein produced in Escherichia coli] | 56 ± 15 µM | – | 11.9 ± 0.2 s⁻¹ | 0.6 ± 0.1 s⁻¹ | – | – | 110 ± 30 µM | 1.7 ± 0.2 s⁻¹ | 16 ± 3 µM | – |
| ESYLLPELTRYDCEVNVPVLGSSTLLQGGDLLRAL [HIF-2α CAD35-mer] | 110 ± 10 µM | – | 4.9 ± 0.2 s⁻¹ | 0.017 ± 0.01 s⁻¹ | – | > 700 µM | 19 ± 6 µM | 0.049 ± 0.005 s⁻¹ | 315 ± 40 µM | – |
| HLEVVKLLLEAGADVNAQDK [1CA20-mer] | 40 ± 10 µM | – | 17.6 ± 0.1 s⁻¹ | 0.4 ± 0.1 s⁻¹ | – | – | 290 ± 50 µM | 1.6 ± 0.1 s⁻¹ | 25 ± 7 µM | – |
| AAGYNNLEVAEYLLEHGADVNAQDKGGLIPLHNAA [tnkrs-1_35-mer, 35-mer fragment of tankyrase-1, ARD substrate of FIH] | 50 ± 10 µM | – | 14.8 ± 0.2 s⁻¹ | 0.27 ± 0.03 s⁻¹ | – | – | 61 ± 7 µM | 3.0 ± 0.2 s⁻¹ | 14 ± 4 µM | – |
| GSHMGSDLGKKLLEAARAGQDDEVRILMANGADVAAKDKNGSTPLHLAARNGHLEVVKLLLEAGADVNAQDKFGKTAFDISIDNGNEDLAEILQ [3CA, recombinant three-consensus ankyrin repeat protein produced in Escherichia coli] | 120 ± 20 µM | – | 10.5 ± 0.1 s⁻¹ | 1.7 s⁻¹ and 1.7 ± 0.3 s⁻¹ | – | – | 200 ± 60 µM | 0.6 ± 0.2 s⁻¹ | 60 ± 15 µM | 2 fold |
